Reference: patent US7138361B2, “Herbicidal heterocycles” (E. I. du Pont de Nemours and Company, priority 2000, dated 2006)

Assays:
Type in all cases: in vivo
[1] = tested on: Surinam grass (Brachiaria decumbens); assay: Test B postemergence
Summary of the method: (§1)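 Preemergence: seeds planted and treated with test chemicals in non-phytotoxic solvent with surfactant; postemergence on plants 2–18 cm (1- to 4-leaf stage). Kept in greenhouse 13–15 days, then visually rated against controls on a 0 (no effect) to 100 (complete control) scale.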

[2] = tested on: barnyardgrass (Echinochloa crus-galli); assay: Test B postemergence
Summary of the method: as §1

corn (Zea mays) [3] = assay: Test B postemergence
Summary of the method: as §1

[4] = tested on: giant foxtail (Setaria faberii); assay: Test B postemergence; conditions: Rate 125 g/ha, scale 0 to 100, 0 no effect, 100 complete control
Summary of the method: as §1

[5] = tested on: lambsquarters (Chenopodium album); assay: Test B postemergence; conditions: Rate 125 g/ha, scale 0 to 100, 0 no effect, 100 complete control
Summary of the method: as §1

[6] = tested on: morning glory (Ipomoea hederacea); assay: Test B postemergence; conditions: Rate 125 g/ha, scale 0 to 100, 0 no effect, 100 complete control
Summary of the method: as §1

[7] = tested on: pigweed (Amaranthus retroflexus); assay: Test B postemergence; conditions: Rate 125 g/ha, scale 0 to 100, 0 no effect, 100 complete control
Summary of the method: as §1

[8] = tested on: velvetleaf (Abutilon theophrasti); assay: Test B postemergence; conditions: Rate 125 g/ha, scale 0 to 100, 0 no effect, 100 complete control
Summary of the method: as §1

[9] = tested on: wheat (Triticum aestivum); assay: Test B postemergence; conditions: Rate 125 g/ha, scale 0 to 100, 0 no effect, 100 complete control
Summary of the method: as §1

wild oat (Avena fatua) = assay: Test B postemergence; conditions: Rate 125 g/ha, scale 0 to 100, 0 no effect, 100 complete control
Summary of the method: as §1

[10] = tested on: Surinam grass (Brachiaria decumbens); assay: Test C postemergence
Summary of the method: (§2)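 Each compound was dissolved in a non-phytotoxic solvent system containing a surfactant and sprayed either on freshly planted seeds (preemergence) or on young plants, 2 to 18 cm high (postemergence). Ratings after 12 to 14 greenhouse days ran from 0, no effect, to 100, complete control.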

[11] = tested on: bermudagrass (Cynodon dactylon); assay: Test C postemergence
Summary of the method: as §2

[12] = tested on: cocklebur (Xanthium strumarium); assay: Test C postemergence
Summary of the method: as §2

corn (Zea mays) [13] = assay: Test C postemergence
Summary of the method: as §2

[14] = tested on: crabgrass (Digitaria sanguinalis); assay: Test C postemergence; conditions: scale 0 to 100 (0 no effect, 100 complete control)
Summary of the method: as §2

[15] = tested on: giant foxtail (Setaria faberii); assay: Test C postemergence
Summary of the method: as §2

[16] = tested on: johnsongrass (Sorghum halepense); assay: Test C postemergence
Summary of the method: as §2

kochia (Kochia scoparia) = assay: Test C postemergence
Summary of the method: as §2

[17] = tested on: pigweed (Amaranthus retroflexus); assay: Test C postemergence
Summary of the method: as §2

soybean (Glycine max) = assay: Test C postemergence
Summary of the method: as §2

[18] = tested on: velvetleaf (Abutilon theophrasti); assay: Test C postemergence
Summary of the method: as §2

[19] = tested on: woolly cupgrass (Eriochloa villosa); assay: Test C postemergence
Summary of the method: as §2

[20] = tested on: yellow nutsedge (Cyperus esculentus); assay: Test C postemergence
Summary of the method: as §2

[21] = Rate 125 g/ha, scale 0 to 100, 0 no effect, 100 complete control
[22] = Rate 500 g/ha, scale 0 to 100, 0 is no effect, 100 is complete control, 13 to 15 days
[23] = Rate 250 g/ha, scale 0 to 100 (0 no effect, 100 complete control)
[24] = Rate 500 g/ha, scale 0 to 100 (0 no effect, 100 complete control)

CCC(CC)c1ccn(C2OCN(c3cccc(OC(F)F)c3)C2=O)n1 (stereo not drawn) [Compound 131]
Plant response rating, Surinam grass [1, 21]: 0 | Plant response rating, Surinam grass [1, 22]: 30 | Plant response rating, Barnyardgrass [2, 21]: 80 | Plant response rating, Barnyardgrass [2, 22]: 100 | Plant response rating, Corn (corn (Zea mays) [3]; [21]): 0 | Plant response rating, Corn (corn (Zea mays) [3]; [22]): 20 | Plant response rating, Foxtail, Giant [4]: 20 | Plant response rating, Lambsquarters [5]: 90 | Plant response rating, Morningglory [6]: 20 | Plant response rating, Pigweed [7]: 80 | Plant response rating, Velvetleaf [8]: 0 | Plant response rating, Wheat [9]: 0 | Plant response rating, Wild Oat (wild oat (Avena fatua)): 20 | Plant response rating, Surinam grass ([10]; Rate 62 g/ha, scale 0 to 100): 0 | Plant response rating, Surinam grass [10, 23]: 40 | Plant response rating, Surinam grass [10, 24]: 40 | Plant response rating, Bermudagrass ([11]; Rate 62 g/ha, scale 0 to 100): 20 | Plant response rating, Bermudagrass [11, 21]: 60 | Plant response rating, Bermudagrass [11, 23]: 90 | Plant response rating, Bermudagrass [11, 24]: 90 | Plant response rating, Cocklebur ([12]; Rate 62 g/ha, scale 0 to 100): 0 | Plant response rating, Cocklebur [12, 23]: 30 | Plant response rating, Cocklebur [12, 24]: 30 | Plant response rating, Corn (corn (Zea mays) [13]; Rate 62 g/ha, scale 0 to 100): 0 | Plant response rating, Corn (corn (Zea mays) [13]; [23]): 20 | Plant response rating, Corn (corn (Zea mays) [13]; [24]): 30 | Plant response rating, Corn (corn (Zea mays) [13]; scale 0 to 100): 10 | Plant response rating, Crabgrass ([14]; Rate 250 g/ha): 80 | Plant response rating, Crabgrass ([14]; Rate 500 g/ha): 90 | Plant response rating, Foxtail, Giant ([15]; Rate 62 g/ha, scale 0 to 100): 20 | Plant response rating, Foxtail, Giant [15, 23]: 50 | Plant response rating, Foxtail, Giant [15, 24]: 80 | Plant response rating, Johnsongrass ([16]; Rate 62 g/ha, scale 0 to 100): 0 | Plant response rating, Johnsongrass [16, 24]: 30 | Plant response rating, Johnsongrass ([16]; rate not given, scale 0 to 100): 20 | Plant response rating, Kochia (kochia (Kochia scoparia); Rate 62 g/ha, scale 0 to 100): 60 | Plant response rating, Kochia (kochia (Kochia scoparia); [23]): 80 | Plant response rating, Kochia (kochia (Kochia scoparia); [24]): 90 | Plant response rating, Pigweed ([17]; Rate 62 g/ha, scale 0 to 100): 20 | Plant response rating, Pigweed [17, 23]: 90 | Plant response rating, Pigweed [17, 24]: 100 | Plant response rating, Soybean (soybean (Glycine max); Rate 62 g/ha, scale 0 to 100): 20 | Plant response rating, Soybean (soybean (Glycine max); [23]): 30 | Plant response rating, Soybean (soybean (Glycine max); [24]): 50 | Plant response rating, Velvetleaf ([18]; Rate 62 g/ha, scale 0 to 100): 20 | Plant response rating, Velvetleaf [18, 23]: 20 | Plant response rating, Velvetleaf [18, 24]: 30 | Plant response rating, Velvetleaf ([18]; scale 0 to 100): 20 | Plant response rating, Cupgrass, Woolly ([19]; Rate 62 g/ha, scale 0 to 100): 10 | Plant response rating, Cupgrass, Woolly [19, 23]: 70 | Plant response rating, Cupgrass, Woolly [19, 24]: 80 | Plant response rating, Nutsedge ([20]; Rate 62 g/ha, scale 0 to 100): 0 | Plant response rating, Nutsedge [20, 23]: 0 | Plant response rating, Nutsedge [20, 24]: 0
